Measurements reported in patent US12435059B2, “AMP-activated protein kinase inhibitors and methods of making and using the same” (The Regents of the University of Colorado, priority 2019, dated 2025).
Where two headings read alike, the source gives them in different places.

Columns and labels:
AMPKα1 = AMPKα1 (Homo sapiens (Human), UniProt Q13131); test: LANCE Eu TR-FRET recombinant kinase assay, AMPK(α1); type: biochemical; settings: mean±S.D. (n=3); ATP 8 μM; read-out: IC50 (nM) AMPK(α1)
Method: Assays were performed at 25° C. in a reaction mixture consisting of 2.5 μL serially diluted inhibitor solution, 2.5 μL kinase, 2.5 μL ATP and 2.5 μL substrate. Reagents were incubated for 1 hr before the reaction was halted through the addition of EDTA (10 mM) after which Eu anti-phospho-CREB (Ser133) antibody (PerkinElmer) was added at a final concentration of 2 nM for 1 hr. […] (n=3)).

468 kinases [1] = target: 468 kinases (Homo sapiens, UniProt P00519, Y253F); test: biochemical; type: binding; settings: ABL1 (Y253F)-phosphorylated; read-out: % Inhibition @ 100 nM
468 kinases [2] = target: 468 kinases (Homo sapiens, UniProt Q56UN5); test: biochemical; type: binding; settings: YSK4; read-out: % Inhibition @ 100 nM
468 kinases [3] = target: 468 kinases (Homo sapiens, UniProt Q9NYL2); test: biochemical; type: binding; settings: ZAK; read-out: % Inhibition @ 100 nM
468 kinases [4] = target: 468 kinases (Homo sapiens, UniProt P36896); test: biochemical; type: binding; settings: ACVR1B; read-out: % Inhibition @ 100 nM
468 kinases [5] = target: 468 kinases (Homo sapiens, UniProt P08922); test: biochemical; type: binding; settings: ROS1; read-out: % Inhibition @ 100 nM
468 kinases [6] = target: 468 kinases (Homo sapiens, UniProt P00533, G719S); test: biochemical; type: binding; settings: EGFR(G719S); read-out: % Inhibition @ 100 nM
468 kinases [7] = target: 468 kinases (Homo sapiens, UniProt Q9UBF8); test: biochemical; type: binding; settings: PIK4CB; read-out: % Inhibition @ 100 nM
468 kinases [8] = target: 468 kinases (Homo sapiens, UniProt P09619); test: biochemical; type: binding; settings: PDGFRB; read-out: % Inhibition @ 100 nM
468 kinases [9] = target: 468 kinases (Homo sapiens, UniProt P08581); test: biochemical; type: binding; settings: MET; read-out: % Inhibition @ 100 nM
468 kinases [10] = target: 468 kinases (Homo sapiens, UniProt P25098); test: biochemical; type: binding; settings: GRK2; read-out: % Inhibition @ 100 nM
468 kinases [11] = target: 468 kinases (Homo sapiens, UniProt P36888, K663Q); test: biochemical; type: binding; settings: FLT3(K663Q); read-out: % Inhibition @ 100 nM
468 kinases [12] = target: 468 kinases (Homo sapiens, UniProt P04629); test: biochemical; type: binding; settings: TRKA; read-out: % Inhibition @ 100 nM
468 kinases [13] = target: 468 kinases (Homo sapiens, UniProt Q9Y243); test: biochemical; type: binding; settings: AKT3; read-out: % Inhibition @ 100 nM
468 kinases [14] = target: 468 kinases (Homo sapiens, UniProt P00519, H396P); test: biochemical; type: binding; settings: read-out: % Inhibition @ 100 nM
468 kinases [15] = target: 468 kinases (Homo sapiens, UniProt P00533, L861Q); test: biochemical; type: binding; settings: EGFR(L861Q); read-out: % Inhibition @ 100 nM
468 kinases [16] = target: 468 kinases (Homo sapiens, UniProt O75716); test: biochemical; type: binding; settings: STK16; read-out: % Inhibition @ 100 nM
468 kinases [17] = target: 468 kinases (Homo sapiens, UniProt O95382); test: biochemical; type: binding; settings: ASK2; read-out: % Inhibition @ 100 nM
468 kinases [18] = target: 468 kinases (Homo sapiens, UniProt P19784); test: biochemical; type: binding; settings: CSNK2A2; read-out: % Inhibition @ 100 nM
468 kinases [19] = target: 468 kinases (Homo sapiens, UniProt P36888, R834Q); test: biochemical; type: binding; settings: FLT3(R834Q); read-out: % Inhibition @ 100 nM
FLT1 = FLT1 (Homo sapiens (Human), UniProt P17948); test: Kinome binding analysis at 100 nM, FLT1; settings: read-out: Percentage inhibition at 100 nM, FLT1
468 kinases [20] = target: 468 kinases (Homo sapiens, UniProt Q13163); test: biochemical; type: binding; settings: MEK5; read-out: % Inhibition @ 100 nM
468 kinases [21] = target: 468 kinases (Homo sapiens, UniProt Q8N752); test: biochemical; type: binding; settings: CSNK1A1L; read-out: % Inhibition @ 100 nM
468 kinases [22] = target: 468 kinases (Homo sapiens, UniProt Q8TDX7); test: biochemical; type: binding; settings: NEK7; read-out: % Inhibition @ 100 nM
468 kinases [23] = target: 468 kinases (Homo sapiens, UniProt Q9Y6R4); test: biochemical; type: binding; settings: MAP3K4; read-out: % Inhibition @ 100 nM
468 kinases [24] = target: 468 kinases (Homo sapiens, UniProt Q13188); test: biochemical; type: binding; settings: MST2; read-out: % Inhibition @ 100 nM
468 kinases [25] = target: 468 kinases (Homo sapiens, UniProt O94921); test: biochemical; type: binding; settings: PFTK1; read-out: % Inhibition @ 100 nM
468 kinases [26] = target: 468 kinases (Homo sapiens, UniProt P31749); test: biochemical; type: binding; settings: AKT1; read-out: % Inhibition @ 100 nM
468 kinases [27] = target: 468 kinases (Homo sapiens, UniProt Q16512); test: biochemical; type: binding; settings: PKN1; read-out: % Inhibition @ 100 nM
CSF1R-autoinhibited = CSF1R-autoinhibited (Homo sapiens (Human), UniProt P07333); test: Kinome binding analysis at 100 nM, CSF1R-autoinhibited; settings: read-out: Percentage inhibition at 100 nM, CSF1R-autoinhibited

| SMILES | IC50 (AMPKα1) | inhibition at 0.1 µM (468 kinases [2]) | inhibition at 0.1 µM (468 kinases [3]) | inhibition at 0.1 µM (468 kinases [4]) | inhibition at 0.1 µM (468 kinases [5]) | inhibition at 0.1 µM (468 kinases [6]) | inhibition at 0.1 µM (468 kinases [7]) | inhibition at 0.1 µM (468 kinases [8]) | inhibition at 0.1 µM (468 kinases [10]) | inhibition at 0.1 µM (468 kinases [11]) | inhibition at 0.1 µM (468 kinases [12]) | inhibition at 0.1 µM (468 kinases [13]) | inhibition at 0.1 µM (468 kinases [14]; ABL1 (H396P)-nonphosphorylated) | inhibition at 0.1 µM (468 kinases [15]) | inhibition at 0.1 µM (468 kinases [16]) | inhibition at 0.1 µM (468 kinases [17]) | inhibition at 0.1 µM (468 kinases [19]) | also measured |
| --- | --- | --- | --- | --- | --- | --- | --- | --- | --- | --- | --- | --- | --- | --- | --- | --- | --- | --- |
| CCN(CC)CCNC(=O)c1c(C)[nH]c(/C=C2\C(=O)Nc3ccc(CCO)cc32)c1C [Compound No. 10, (Z)—N-(2-(Diethylamino)ethyl)-5-((5-(2-hydroxyethyl)-2-oxoindolin-3-ylidene)methyl)-2,4-dimethyl-1H-pyrrole-3-carboxamide] | 173 ± 15 nM | 90.4% | 10% | 0% | 15% | 9% | 0% | 99.3% | 0% | 96.4% | 95.5% | 47% | 57% | 39% | 0% | 0% | 56% | inhibition at 0.1 µM (468 kinases [1]): 5%; inhibition at 0.1 µM (468 kinases [9]): 13%; inhibition at 0.1 µM (468 kinases [14]; ABL1 (H396P)-phosphorylated): 6%; inhibition at 0.1 µM (468 kinases [18]): 0%; inhibition at 0.1 µM (FLT1): 42% |
| CCN(CC)CCNC(=O)c1c(C)[nH]c(/C=C2\C(=O)Nc3ccc(CCC(N)=O)cc32)c1C [Compound No. 16, (Z)-5-((5-(3-Amino-3-oxopropyl)-2-oxoindolin-3-ylidene)methyl)-N-(2-(diethylamino)ethyl)-2,4-dimethyl-1H-pyrrole-3-carboxamide] | 107 ± 17 nM | 98.2% | 10% | 0% | 0% | 21% | 10% | 61% | 48% | 92.9% | 97.4% | 17% | 66% | 4% | 6% | 47% | 55% | inhibition at 0.1 µM (468 kinases [20]): 80%; inhibition at 0.1 µM (468 kinases [21]): 6%; inhibition at 0.1 µM (468 kinases [22]): 5%; inhibition at 0.1 µM (468 kinases [23]): 8%; inhibition at 0.1 µM (468 kinases [24]): 41%; inhibition at 0.1 µM (468 kinases [25]): 13%; inhibition at 0.1 µM (468 kinases [26]): 0%; inhibition at 0.1 µM (468 kinases [27]): 24%; inhibition at 0.1 µM (CSF1R-autoinhibited): 14% |
